Data from patent publication US11708359B2, “Monoacylglycerol lipase modulators” (Janssen Pharmaceutica NV, priority 2020, dated 2023).
pIC50: −log10 of the molar value.

Biological target: human MGL from HeLa cells (Homo sapiens (Human), UniProt Q99685)
Assay: MGL in vitro activity assay ([glycerol-1,3-3H]-oleoyl glycerol cleavage, activated carbon filter)
Format: biochemical
Conditions: 300 nM [Glycerol-1,3-3H]-oleoyl glycerol, endogenously expressed MGL from HeLa cells, one hour incubation; read-out: MGL IC50
Protocol: The assay consists of combining endogenously expressed MGL from HeLa cells with test compounds, adding[glycerol-1,3-^3H]-oleoyl glycerol, incubating for one hour, and then measuring the amount of cleaved[1,3-^3H]-glycerol that passes through an activated carbon filter. The amount of cleaved, tritiated glycerol passing through the carbon filter is proportional to the activity of the MGL enzyme in a particular well/test condition.
Standard conditions for this assay combine 300 nM [Glycerol-1,3-^3H]-oleoyl glycerol with human MGL from HeLa cells and test compounds for one hour, after which the reaction is filtered through activated carbon and tritium is measured in the flow through. […] MGL is the predominant hydrolase in HeLa cells/cell homogenates.

Chain of human MGL from HeLa cells (Q99685 whole entry): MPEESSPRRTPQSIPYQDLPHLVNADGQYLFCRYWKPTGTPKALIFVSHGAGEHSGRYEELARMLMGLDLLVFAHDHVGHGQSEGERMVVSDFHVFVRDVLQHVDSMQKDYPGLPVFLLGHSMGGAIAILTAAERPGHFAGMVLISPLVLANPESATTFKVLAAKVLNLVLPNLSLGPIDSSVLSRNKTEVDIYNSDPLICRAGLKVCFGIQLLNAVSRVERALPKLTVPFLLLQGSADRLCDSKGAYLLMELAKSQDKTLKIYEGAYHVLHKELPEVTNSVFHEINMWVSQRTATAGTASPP

| pIC50 | SMILES |
| --- | --- |
| 8.82 | CC(C)Cc1cccc([C@H]2[C@@H]3CN(C(=O)[C@H]4C[C@]5(COC(=O)N5)C4)C[C@@H]32)c1 [Example 101, (2s,4S)-2-((1R,5S,6S)-6-(3-Isobutylphenyl)-3-azabicyclo[3.1.0]hexane-3-carbonyl)-7-oxa-5-azaspiro[3.4]octan-6-one] |
| 8.54 | CC(C)(C)c1ccc([C@H]2[C@@H]3CN(C(=O)[C@H]4C[C@]5(CCC(=O)N5)C4)C[C@@H]32)cc1 [Example 83, (2r,4S)-2-((1R,5S,6S)-6-(4-(tert-Butyl)phenyl)-3-azabicyclo[3.1.0]hexane-3-carbonyl)-5-azaspiro[3.4]octan-6-one] |
| 8.14 | CC(C)(C)c1cccc([C@H]2[C@@H]3CN(C(=O)[C@H]4C[C@]5(CCC(=O)N5)C4)C[C@@H]32)c1 [Example 79, (2r,4S)-2-((1R,5S,6S)-6-(3-(tert-Butyl)phenyl)-3-azabicyclo[3.1.0]hexane-3-carbonyl)-5-azaspiro[3.4]octan-6-one] |
| 7.96 | CCc1cc([C@H]2[C@@H]3CN(C(=O)[C@H]4C[C@]5(COC(=O)N5)C4)C[C@@H]32)ccc1F [Example 111, (2s,4S)-2-((1R,5S,6S)-6-(3-Ethyl-4-fluorophenyl)-3-azabicyclo[3.1.0]hexane-3-carbonyl)-7-oxa-5-azaspiro[3.4]octan-6-one] |
| 7.42 | C[C@]12CN(C(=O)[C@H]3C[C@]4(COC(=O)N4)C3)C[C@H]1[C@@H]2c1ccc(C2CC2)cc1 (racemic) [Example 108, (rac)-(2s,4*5)-2-((1*R,5*S,6*R)-6-(4-Cyclopropylphenyl)-1-methyl-3-azabicyclo[3.1.0]hexane-3-carbonyl)-7-oxa-5-azaspiro[3.4]octan-6-one] |
| 8.12 | CC1(c2ccc([C@@]34C[C@@H]3CN(C(=O)[C@H]3C[C@]5(CCC(=O)N5)C3)C4)cc2)CC1 (stereo in doubt) [Example 95, (2r,4*S)-2-((1*R,5*5)-1-(4-(1-Methylcyclopropyl)phenyl)-3-azabicyclo[3.1.0]hexane-3-carbonyl)-5-azaspiro[3.4]octan-6-one] |

Second part, the molecule before the results:

| SMILES | pIC50 |
| --- | --- |
| O=C1N[C@]2(CO1)C[C@H](C(=O)N1CCC3(c4ccc(OC(F)(F)F)cc4)CC3C1)C2 (mixture of isomers) [Example 54, (rac)-(2s,4s)-2-(6-(4-(Trifluoromethoxy)phenyl)-3-azabicyclo[4.1.0]heptane-3-carbonyl)-7-oxa-5-azaspiro[3.4]octan-6-one] | 8.60 |
| CC(C)c1cccc(C23CC2CN(C(=O)[C@H]2C[C@]4(COC(=O)N4)C2)C3)c1 (mixture of isomers) [Example 6, (rac)-(2s,4s)-2-(1-(3-Isopropylphenyl)-3-azabicyclo[3.1.0]hexane-3-carbonyl)-7-oxa-5-azaspiro[3.4]octan-6-one] | 8.16 |
| O=C1CCC2(CC(C(=O)N3CC[C@]4(c5cccc(OC(F)(F)F)c5)C[C@@H]4C3)C2)N1 (relative stereo) [Example 120, (2r,4*R)-2-((1*S,6*R)-6-(3-(Trifluoromethoxy)phenyl)-3-azabicyclo[4.1.0]heptane-3-carbonyl)-5-azaspiro[3.4]octan-6-one] | 7.64 |
| O=C1N[C@]2(CO1)C[C@H](C(=O)N1CC3CC3(c3ccc(C4CC4)cc3)C1)C2 (mixture of isomers) [Example 18, (rac)-(2s,4s)-2-(1-(4-Cyclopropylphenyl)-3-azabicyclo[3.1.0]hexane-3-carbonyl)-7-oxa-5-azaspiro[3.4]octan-6-one] | 8.36 |
| O=C1N[C@]2(CO1)C[C@H](C(=O)N1CC3CC3(c3ccc(C(F)(F)F)cc3)C1)C2 (mixture of isomers) [Example 24, (rac)-(2s,4s)-2-(1-(4-(Trifluoromethyl)phenyl)-3-azabicyclo[3.1.0]hexane-3-carbonyl)-7-oxa-5-azaspiro[3.4]octan-6-one] | 7.82 |
| Cc1cccc(C23CCN(C(=O)[C@H]4C[C@]5(COC(=O)N5)C4)CC2C3)c1 (mixture of isomers) [Example 43, (rac)-(2s,4s)-2-(6-(m-Tolyl)-3-azabicyclo[4.1.0]heptane-3-carbonyl)-7-oxa-5-azaspiro[3.4]octan-6-one] | 8.09 |
